Like-named read-outs stand apart in the source and are kept apart here.

In test [1] the test system is HEK293 clonal cell line overexpressing APOL1 G1. In words: APOL1 G1 HEK293 cell rescue assay (Example B3). As to conditions: geometric mean of at least 2 runs, † = single run, ¥ = concentration at 50% rescue estimated (no sigmoidal curve). It counts as cell-based. In a few lines: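 Rescue of cell death caused by APOL1 G1 overexpression was measured in a clonal HEK293 line. Compounds were tested in duplicate on one plate, and EC50s were geometric means across at least two runs on different days. Some values are estimated 50%-rescue concentrations where curve fitting failed.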

In test [2] the test system is Trypanosoma brucei Lister 427 VSG221 with APOL1 G1 recombinant protein. In words: APOL1 G1 trypanosome cell rescue assay (Example B5). It is filed as cell-based. The note with it: geometric mean of at least 2 assay runs, † = single assay run. Put shortly: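 Viability read by CellTiter-Glo luminescence after 20 h co-incubation (37° C, 5% CO2) of 250 trypanosomes/well in modified HMI-9 with test compound (duplicate 11-point, 2-fold dilutions, 0.4% DMSO) and APOL1 protein, […]. Protein: mature residues 28-398, E. coli inclusion-body refolded, tag cleaved, in DDM.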

[3] abbreviates: Homo sapiens, HEK293, HEK293 clonal line overexpressing APOL1 G1.
[4] abbreviates: Trypanosoma brucei, 20 h, read-out: APOL1 G1 Trypanosome Rescue EC50, Trypanosoma brucei Lister 427 VSG221 with APOL1 G1 recombinant protein, 20 hours, CellTiter-Glo.

As usually defined, the EC50 is the concentration giving half of the maximal effect. In the case of `CC1(O)CC(CN2C(=O)CCc3cc(OCCN4CCC5(CC4)C(=O)Nc4ccc(Cl)cc45)cnc32)C1` (centres unmarked) [Compound 327, 5-chloro-1′-[2-({8-[(3-hydroxy-3-methylcyclobutyl)methyl]-7-oxo-5,6,7,8-tetrahydro-1,8-naphthyridin-3-yl}oxy)ethyl]-1,2-dihydrospiro[indole-3,4′-piperidin]-2-one], the EC50 was 84.4 nM in test [1] (setting [3]) and 46.6 nM in test [2] (setting [4]).

Regarding `Cc1nc(-c2ccc(OCCN3CCC4(CC3)C(=O)N(C)c3ccccc34)cc2)no1` [Compound 35, 1-methyl-1′-{2-[4-(5-methyl-1,2,4-oxadiazol-3-yl)phenoxy]ethyl}-1,2-dihydrospiro[indole-3,4′-piperidin]-2-one], the EC50 is 488 nM in test [1] (setting [3]) and above 4000 nM in test [2] (setting [4]).

Turning to `CC1(O)CC(c2ncc(OCCN3CCC4(CC3)C(=O)Nc3ccc(Cl)cc34)cn2)C1` (single isomer, unassigned) [Compound 393, 5-chloro-1′-[2-({2-[(cis) or (trans)-3-hydroxy-3-methylcyclobutyl]pyrimidin-5-yl}oxy)ethyl]-1,2-dihydrospiro[indole-3,4′-piperidin]-2-one], the concentration giving a half-maximal response (EC50) in test [1] (HEK293 clonal line overexpressing APOL1 G1) was 159 nM; in test [2] (read-out: APOL1 G1 Trypanosome Rescue EC50, Trypanosoma brucei Lister 427 VSG221 with APOL1 G1 recombinant protein, 20 hours, CellTiter-Glo), 360 nM. Regarding `C[C@]1(O)C[C@@H](n2nnc3cc(OCCN4CCC5(CC4)C(=O)Nc4ccc(Cl)cc45)cc(C(F)(F)F)c32)C1` [Compound 434, 5-chloro-1′-[2-({1-[(cis)-3-hydroxy-3-methylcyclobutyl]-7-(trifluoromethyl)-1H-1,2,3-benzotriazol-5-yl}oxy)ethyl]-1,2-dihydrospiro[indole-3,4′-piperidin]-2-one], the EC50 in test [1] (setting [3]) is 14.8 nM.

For `C[C@]1(O)C[C@@H](n2c(=O)oc3cc(OCCN4CCC5(CC4)C(=O)Nc4ccc(Cl)cc45)cnc32)C1` [Compound 394, 5-chloro-1′-[2-({2-oxo-3-[(cis)-3-hydroxy-3-methylcyclobutyl]-2H,3H-[1,3]oxazolo[4,5-b]pyridin-6-yl}oxy)ethyl]-1,2-dihydrospiro[indole-3,4′-piperidin]-2-one], the EC50 in test [1] (setting [3]) was 77.7 nM.

For `Cc1cc(OCCN2CCC3(CC2)C(=O)Nc2ccc(Cl)cc23)ccc1C(N)=O` [Compound 49, 4-(2-{5-chloro-2-oxo-1,2-dihydrospiro[indole-3,4′-piperidin]-1′-yl}ethoxy)-2-methylbenzamide], the values for the EC50 in test [1] (setting [3]) and in test [2] (setting [4]) were 260 nM and 304 nM, respectively. Take `C[C@]1(O)C[C@@H](n2cc3cc(OCCN4CCC5(CC4)C(=O)Nc4ccc(Cl)cc45)cc(C(F)(F)F)c3n2)C1` [Compound 427, 5-chloro-1′-[2-({2-[(cis)-3-hydroxy-3-methylcyclobutyl]-7-(trifluoromethyl)-2H-indazol-5-yl}oxy)ethyl]-1,2-dihydrospiro[indole-3,4′-piperidin]-2-one]: the values for the EC50 in test [1] (setting [3]) and in test [2] (setting [4]) were 35.8 nM and 18.1 nM, respectively.

In the case of `CS(C)(=O)=Nc1ccc(OCCN2CCC3(CC2)C(=O)Nc2ccc(C#N)cc23)cc1` [Compound 77, 1′-[2-(4-{[dimethyl(oxo)-λ^6-sulfanylidene]amino}phenoxy)ethyl]-2-oxo-1,2-dihydrospiro[indole-3,4′-piperidine]-5-carbonitrile], the EC50 is above 4760 nM in test [1] (setting [3]) and above 4000 nM in test [2] (setting [4]). In the case of `CS(=O)(=O)c1ccc(OCCN2CCC3(CC2)C(=O)Nc2ccc(Br)cc23)cc1` [Compound 72, 5-bromo-1′-[2-(4-methanesulfonylphenoxy)ethyl]-1,2-dihydrospiro[indole-3,4′-piperidin]-2-one], the EC50 in test [1] (setting [3]) is 161 nM; in test [2] (setting [4]), 177 nM. The like results for `CN1C(=O)CCc2cc(OCCN3CCC4(CC3)C(=O)Nc3ccc(C#N)cc34)cnc21` [Compound 79, 1′-{2-[(8-methyl-7-oxo-5,6,7,8-tetrahydro-1,8-naphthyridin-3-yl)oxy]ethyl}-2-oxo-1,2-dihydrospiro[indole-3,4′-piperidine]-5-carbonitrile] were, in that order, 533 nM and 952 nM. With `CS(=O)(=O)c1ccc(OCCN2CCC3(CC2)C(=O)Nc2ccc(Cl)cc23)cn1` [Compound 64, 5-chloro-1′-{2-[(6-methanesulfonylpyridin-3-yl)oxy]ethyl}-1,2-dihydrospiro[indole-3,4′-piperidin]-2-one], the half-maximal effective concentration (EC50) in test [1] (setting [3]) is 516 nM; in test [2] (setting [4]), 712 nM. The like results for `C[C@]1(O)C[C@@H](n2c(=O)[nH]c3cc(OCCN4CCC5(CC4)C(=O)Nc4ccc(Cl)cc45)cc(C(F)(F)F)c32)C1` [Compound 468, 5-chloro-1′-[2-({2-oxo-1-[(cis)-3-hydroxy-3-methylcyclobutyl]-7-(trifluoromethyl)-2,3-dihydro-1H-1,3-benzodiazol-5-yl}oxy)ethyl]-1,2-dihydrospiro[indole-3,4′-piperidin]-2-one] were, in that order, 14.5 nM and 5.59 nM.

As to `C[C@]1(O)C[C@@H](n2c(=O)ccc3cc(OCCN4CCC5(CC4)C(=O)Nc4ccc(C(F)F)cc45)cnc32)C1` [Compound 324, 5-(difluoromethyl)-1′-[2-({7-oxo-8-[(cis)-3-hydroxy-3-methylcyclobutyl]-7,8-dihydro-1,8-naphthyridin-3-yl}oxy)ethyl]-1,2-dihydrospiro[indole-3,4′-piperidin]-2-one], the figures for the EC50 in test [1] (setting [3]) and in test [2] (setting [4]) were 40.8 nM and 35 nM, respectively. As to `CN(c1ccc(OCCN2CCC3(CC2)C(=O)Nc2ccc(Cl)cc23)cc1)S(C)(=O)=O` [Compound 76, N-[4-(2-{5-chloro-2-oxo-1,2-dihydrospiro[indole-3,4′-piperidin]-1′-yl}ethoxy)phenyl]-N-methylmethanesulfonamide], the EC50 was 190 nM in test [1] (setting [3]) and 126 nM in test [2] (setting [4]). Consider `CC(C)(CO)c1ncc(OCCN2CCC3(CC2)C(=O)Nc2ccc(Cl)cc23)cn1` [Compound 334, 5-chloro-1′-(2-{[2-(1-hydroxy-2-methylpropan-2-yl)pyrimidin-5-yl]oxy}ethyl)-1,2-dihydrospiro[indole-3,4′-piperidin]-2-one], for which, in test [1] (setting [3]), the EC50 was 269 nM. As for `C[C@]1(O)C[C@@H](n2cnc3cc(OCCN4CCC5(CC4)C(=O)Nc4ccc(C(F)F)cc45)cc(C(F)(F)F)c32)C1` [Compound 450, 5-(difluoromethyl)-1′-[2-({1-[(cis)-3-hydroxy-3-methylcyclobutyl]-7-(trifluoromethyl)-1H-1,3-benzodiazol-5-yl}oxy)ethyl]-1,2-dihydrospiro[indole-3,4′-piperidin]-2-one], the EC50 in test [1] (setting [3]) is 14.9 nM. In the case of `CC(CO)(c1ncc(OCCN2CCC3(CC2)C(=O)Nc2ccc(Cl)cc23)cc1C(F)(F)F)S(C)(=O)=O` (centres unmarked) [Compound 401, 5-chloro-1′-(2-{[6-(1-hydroxy-2-methanesulfonylpropan-2-yl)-5-(trifluoromethyl)pyridin-3-yl]oxy}ethyl)-1,2-dihydrospiro[indole-3,4′-piperidin]-2-one], in test [1] (setting [3]), the EC50 is 68.2 nM. On the same count and under the same terms, then `Cc1nc2cc(OCCN3CCC4(CC3)C(=O)Nc3ccc(C#N)cc34)cc(C(F)(F)F)c2n1[C@H]1C[C@@](C)(O)C1` [Compound 443, 1′-[2-({2-methyl-1-[(cis)-3-hydroxy-3-methylcyclobutyl]-7-(trifluoromethyl)-1H-1,3-benzodiazol-5-yl}oxy)ethyl]-2-oxo-1,2-dihydrospiro[indole-3,4′-piperidine]-5-carbonitrile], with 30.8 nM; and `C[C@]1(O)C[C@@H](n2cnc3cc(OCCN4CCC5(CC4)C(=O)Nc4ccc(C#N)cc45)cc(C(F)(F)F)c32)C1` [Compound 433, 1′-(2-((1-((cis)-3-hydroxy-3-methylcyclobutyl)-7-(trifluoromethyl)-1H-benzo[d]imidazol-5-yl)oxy)ethyl)-2-oxospiro[indoline-3,4′-piperidine]-5-carbonitrile], with 29.6 nM. As for `O=C1Nc2ccc(Cl)cc2C12CCN(CCOc1cnc(N3CC4(CC(O)C4)C3)nc1)CC2` [Compound 396, 5-chloro-1′-{2-[(2-{6-hydroxy-2-azaspiro[3.3]heptan-2-yl}pyrimidin-5-yl)oxy]ethyl}-1,2-dihydrospiro[indole-3,4′-piperidin]-2-one], in test [1] (setting [3]), the EC50 was 85 nM. `Cc1nc2cc(OCCN3CCC4(CC3)C(=O)Nc3ccc(Cl)cc34)cc(C(F)(F)F)c2n1[C@H]1C[C@@](C)(O)C1` [Compound 442, 5-chloro-1′-[2-({2-methyl-1-[(cis)-3-hydroxy-3-methylcyclobutyl]-7-(trifluoromethyl)-1H-1,3-benzodiazol-5-yl}oxy)ethyl]-1,2-dihydrospiro[indole-3,4′-piperidin]-2-one]: the EC50 in test [1] (setting [3]) was 15.6 nM. For the compound `CC(C)(O)c1ncc(OCCN2CCC3(CC2)C(=O)Nc2ccc(C#N)cc23)cc1C(F)(F)F` [Compound 411, 1′-(2-{[6-(2-hydroxypropan-2-yl)-5-(trifluoromethyl)pyridin-3-yl]oxy}ethyl)-2-oxo-1,2-dihydrospiro[indole-3,4′-piperidine]-5-carbonitrile], the EC50 in test [1] (setting [3]) is 55.6 nM. The same measure, in the same setting: under `C[C@]1(O)C[C@@H](n2ccc3cc(OCCN4CCC5(CC4)C(=O)Nc4ccc(C(F)F)cc45)cnc32)C1` [Compound 350, 5-(difluoromethyl)-1′-[2-({1-[(cis)-3-hydroxy-3-methylcyclobutyl]-1H-pyrrolo[2,3-b]pyridin-5-yl}oxy)ethyl]-1,2-dihydrospiro[indole-3,4′-piperidin]-2-one] stands 43.9 nM.
